# Results reported in patent publication US7902144B2, “Therapeutic and diagnostic ligand systems comprising transport molecule binding properties and medicaments containing the same” (KTB Tumorforschungsgesellschaft mbH, priority 2000, dated 2011).
# Legend:
# [1] = molecular target: T1, human serum albumin (HSA) (Homo sapiens, UniProt P02768); assay: Binding constant relative to HSA as stated in text
# T1 construct: purchased Dessau company, Germany
# From the text: Thus BC-DOX1, after being brought into contact with HSA or after injection into the bloodstream, is tightly bound to that blood protein. Since BC-DOX1 in addition has a sulfonylhydrazone bond as an acid-labile bond between the carrier-molecule-affinitive substance and the cytostatic agent, in the acid environment of tumor tissue or in the acid intracellular compartments of the tumor cell, doxorubicin is released as the active substance so it can exert its therapeutic effect there.
# HSA = HSA (Homo sapiens, UniProt P02768); assay: Incubation with HSA followed by size-exclusion chromatography (Sephadex G-25); format: binding; settings: incubation of only a few seconds with HSA (or blood plasma), mole ratio 1:1, Sephadex G-25
# HSA, sequence (P02768 25-609): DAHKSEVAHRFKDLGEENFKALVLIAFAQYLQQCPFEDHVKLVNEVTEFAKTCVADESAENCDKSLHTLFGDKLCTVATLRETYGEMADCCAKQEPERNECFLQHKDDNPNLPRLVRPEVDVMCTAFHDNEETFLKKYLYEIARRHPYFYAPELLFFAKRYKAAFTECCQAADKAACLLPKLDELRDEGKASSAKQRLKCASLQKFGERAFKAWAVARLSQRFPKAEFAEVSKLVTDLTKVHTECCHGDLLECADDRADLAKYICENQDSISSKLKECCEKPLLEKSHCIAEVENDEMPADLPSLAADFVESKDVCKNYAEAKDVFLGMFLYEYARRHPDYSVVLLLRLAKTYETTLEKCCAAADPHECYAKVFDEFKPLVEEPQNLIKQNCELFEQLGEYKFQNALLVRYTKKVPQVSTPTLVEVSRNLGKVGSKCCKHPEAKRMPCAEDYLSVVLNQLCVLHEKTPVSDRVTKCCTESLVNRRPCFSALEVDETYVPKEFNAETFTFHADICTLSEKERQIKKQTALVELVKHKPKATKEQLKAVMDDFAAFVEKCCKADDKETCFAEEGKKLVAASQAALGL
# transferrin = transferrin (Homo sapiens, UniProt P02787); assay: Incubation with transferrin followed by size-exclusion chromatography (Sephadex G-25); format: binding
# transferrin, sequence (P02787 20-698, species assumed): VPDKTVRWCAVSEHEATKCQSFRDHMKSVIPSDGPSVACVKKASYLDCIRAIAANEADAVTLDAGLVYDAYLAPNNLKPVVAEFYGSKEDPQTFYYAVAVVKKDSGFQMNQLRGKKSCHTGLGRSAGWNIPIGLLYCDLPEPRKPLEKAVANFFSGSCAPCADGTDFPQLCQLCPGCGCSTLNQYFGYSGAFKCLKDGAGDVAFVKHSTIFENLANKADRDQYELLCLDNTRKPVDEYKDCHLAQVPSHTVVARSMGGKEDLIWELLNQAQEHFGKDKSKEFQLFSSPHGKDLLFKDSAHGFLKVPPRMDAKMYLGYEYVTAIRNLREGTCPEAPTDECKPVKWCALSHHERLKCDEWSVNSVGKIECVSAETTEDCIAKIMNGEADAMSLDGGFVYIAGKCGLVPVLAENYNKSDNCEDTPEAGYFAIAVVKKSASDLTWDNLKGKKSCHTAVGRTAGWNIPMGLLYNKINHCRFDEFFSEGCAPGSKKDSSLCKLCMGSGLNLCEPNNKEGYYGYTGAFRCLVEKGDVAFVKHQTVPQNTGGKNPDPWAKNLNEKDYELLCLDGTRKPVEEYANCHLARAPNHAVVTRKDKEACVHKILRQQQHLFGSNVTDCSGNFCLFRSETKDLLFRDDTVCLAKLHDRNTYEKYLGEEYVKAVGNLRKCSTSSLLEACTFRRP
# [2] = molecular target: T1, human serum albumin (HSA); assay: Binding constants relative to HSA by equilibrium dialysis (Scatchard plot); settings: pH 7.4, Scatchard plot
# From the text: A Scatchard plot is used to determine the binding constants relative to human serum albumin (HSA from the Dessau company, Germany) at pH 7.4 by means of equilibrium dialysis (equilibrium dialyzer from Spectrum, Inc., USA; dialysis membrane: cut-off MW 10000) for the prepared doxorubicin derivatives, all including an acid-labile hydrazone bond as the predetermined breaking point, and for doxorubicin.
# [3] = molecular target: T1, human serum albumin (HSA); settings: Literature value (Demant et al., Biochemical Pharmacology 55, 27-32, 1998); cited from earlier work
# T1 sequence (P02768 25-609): as the sequence (P02768 25-609) above
Structure (SMILES),behavior in size-exclusion chromatography after incubation with HSA (HSA),KA relative to HSA [2],other results
COc1cccc2c1C(=O)c1c(O)c3c(c(O)c1C2=O)C[C@@](O)(/C(CO)=N/NS(=O)(=O)c1ccccc1/C(=C1/C=C(Br)C(=O)C(Br)=C1C)c1cc(Br)c(O)c(Br)c1C)C[C@@H]3O[C@H]1CC(N)[C@H](O)C(C)O1 (stereo partly drawn) [BC-DOX1],behavior like that of bromcresol green or bromcresol green sulfonic acid,,binding constant relative to human serum albumin compared with free doxorubicin [1]: several orders of magnitude greater
"Cc1c(C2(c3cc(Br)c(O)c(Br)c3C)OS(=O)(=O)c3ccccc32)cc(Br)c(O)c1Br [Bromcresol green, reference compound]",elute together with HSA,,affinity for other plasma proteins (transferrin): do not exhibit high affinity
COc1cccc2c1C(=O)c1c(O)c3c(c(O)c1C2=O)C[C@](O)(/C(CO)=N/NC(=O)CCOCCOCCOCCOCCOCCOCCNS(=O)(=O)c1ccc2c(N=Nc4ccccc4)c(O)ccc2c1)C[C@@H]3O[C@H]1CC(N)[C@H](O)C(C)O1 (stereo partly drawn) [DOXO-CROC-HEXA],,7.2 × 10^7,
CCCCCCCCCCCCCCCCCC(=O)N/N=C(\CO)[C@@]1(O)Cc2c(O)c3c(c(O)c2[C@@H](O[C@H]2CC(N)[C@H](O)C(C)O2)C1)C(=O)c1c(OC)cccc1C3=O (stereo partly drawn) [DOXO-SAH],,6.1 × 10^6,
COc1cccc2c1C(=O)c1c(O)c3c(c(O)c1C2=O)C[C@](O)(/C(CO)=N/NC(=O)CCOCCOCCOCCOCCOCCOCCNC(=O)c1cc(I)cc(I)c1I)C[C@H]3O[C@H]1CC(N)[C@H](O)C(C)O1 (stereo partly drawn) [DOXO-TIB-HEXA],,5.5 × 10^5,
"COc1cccc2c1C(=O)c1c(O)c3c(c(O)c1C2=O)C[C@@](O)(C(=O)CO)C[C@@H]3O[C@H]1C[C@H](N)[C@H](O)[C@H](C)O1 [Doxorubicin, doxorubicin, reference compound]",,2.9 × 10^3,"KA relative to HSA, literature value [3]: 2.7 × 10^3"
